Patent publication US20100298141A1, “SUBSTITUTED PYRIDINE N-OXIDE HERBICIDES” (E. I. DU PONT DE NEMOURS AND COMPANY, priority 2007, published 2010)

How the values were obtained:
pigweed = assay: Test C pre-/postemergence test; type: in vivo, Amaranthus retroflexus; conditions: for Plant response rating, Pigweed: scale 0 to 100, 0 no effect, 100 complete control
In short: (§1)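 Test chemicals were formulated with surfactant in a non-phytotoxic solvent and sprayed both on freshly planted seeds (preemergence) and on 1- to 4-leaf plants of 2–18 cm (postemergence). Flooded-paddy pots received compound directly into 3 cm of standing water, maintained for the test.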

barnyardgrass = assay: Test C flooded paddy test; type: in vivo, Echinochloa crus-galli; conditions: Flood
In short: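 Flooded 3 cm over soil; compound into paddy water; depth kept constant. Greenhouse 13–15 d.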

soybean = assay: Test C pre-/postemergence test; type: in vivo, Glycine max; conditions: for Soybean plant response rating: preemergence, scale 0 (no effect) to 100 (complete control); for Plant response rating, Soybean: scale 0 to 100, 0 no effect, 100 complete control
In short: as §1

yellow nutsedge = assay: Test C pre-/postemergence test; type: in vivo, Cyperus esculentus; conditions: for Plant response rating, Nutsedge, Yellow: scale 0 to 100, 0 no effect, 100 complete control
In short: as §1

Goosegrass = assay: Test C pre-/postemergence test; type: in vivo, Eleusin indica; conditions: for Plant response rating, Goosegrass: scale 0 to 100, 0 no effect, 100 complete control
In short: as §1

bermudagrass = assay: Test C pre-/postemergence test; type: in vivo, Cynodon dactylon; conditions: for Plant response rating, Bermudagrass: Postemergence, scale 0 to 100, 0 no effect, 100 complete control
In short: as §1

giant foxtail = assay: Test A pre-/postemergence greenhouse test; type: in vivo, Setaria faberi; conditions: for Foxtail, Giant plant response rating: 0 to 100 scale
In short: (§2)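 Herbicidal effect is a visual injury score given about ten days post-treatment by comparison with untreated controls. Preemergence plots received a directed spray onto sown loam–sand soil; postemergence plants, at the one- to two-leaf stage and 2–10 cm tall, were sprayed at the same time.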

morningglory [1] = assay: Test A pre-/postemergence greenhouse test; type: in vivo, Ipomoea spp.; conditions: for Morningglory plant response rating: 0 to 100 scale
In short: as §2

crabgrass = assay: Test A pre-/postemergence greenhouse test; type: in vivo, Digitaria sanguinalis; conditions: for Crabgrass, Large plant response rating: 0 to 100 scale
In short: as §2

wheat [2] = assay: Test A pre-/postemergence greenhouse test; type: in vivo, Triticum aestivum; conditions: for Wheat plant response rating: 0 to 100 scale
In short: as §2

Italian ryegrass = assay: Test C pre-/postemergence test; type: in vivo, Lolium multiflorum; conditions: for Plant response rating, Ryegrass, Italian: scale 0 to 100, 0 no effect, 100 complete control
In short: as §1

morningglory [3] = assay: Test C pre-/postemergence test; type: in vivo, Ipomoea coccinea; conditions: for Plant response rating, Morningglory: scale 0 to 100, 0 no effect, 100 complete control
In short: as §1

catchweed bedstraw = assay: Test C pre-/postemergence test; type: in vivo, Galium aparine
Excerpt: Seeds of plant species selected from blackgrass (Alopecurus myosuroides), downy brome (Bromus tectorum), green foxtail (Setaria viridis), Italian ryegrass (Lolium multiflorum), wheat (Triticum aestivum), wild oat (Avena fatua), catchweed bedstraw (Galium aparine), Russian thistle (Salsola kali), […] (Cynodon dactylon), Surinam grass (Brachiaria decumbens), cocklebur (Xanthium strumarium), corn (Zea mays), crabgrass (Digitaria sanguinalis), woolly cupgrass (Eriochloa villosa), giant foxtail (Setaria faberii), Goosegrass (Eleusin indica), johnsongrass (Sorghum halepense), kochia (Kochia scoparia), lambsquarters (Chenopodium album), morningglory (Ipomoea coccinea), eastern black nightshade (Solanum ptycanthum), yellow nutsedge (Cyperus esculentus), pigweed (Amaranthus retroflexus), common ragweed (Ambrosia elation), soybean (Glycine max), common (oilseed) sunflower (Helianthus annuus), and velvetleaf (Abutilon theophrasti) were planted and treated preemergence with test chemicals formulated in a non-phytotoxic solvent mixture which included a surfactant. At the same time, plants selected from these crop and weed species and also winter barley (Hordeum vulgare), canarygrass (Phalaris minor), and chickweed (Stellaria media) were treated with postemergence applications of some of the test chemicals formulated in the same manner. Plants ranged in height from 2 to 18 cm (1- to 4-leaf stage) for postemergence treatments. […] At time of treatment, test pots were flooded to 3 cm above the soil surface, treated by application of test compounds directly to the paddy water, and then maintained at that water depth for the duration of the test. […] A dash (-) response means no test result.

[4] = system: common (oilseed) sunflower; assay: Test C pre-/postemergence test; type: in vivo, Helianthus annuus; conditions: for Sunflower plant response rating: preemergence, scale 0 (no effect) to 100 (complete control)
In short: as §1

corn = assay: Test A pre-/postemergence greenhouse test; type: in vivo, Zea mays; conditions: for Corn plant response rating: 0 to 100 scale
In short: as §2

wheat [5] = assay: Test C pre-/postemergence test; type: in vivo, Triticum aestivum; conditions: for Wheat plant response rating: preemergence, scale 0 (no effect) to 100 (complete control); for Plant response rating, Wheat: scale 0 to 100, 0 no effect, 100 complete control
In short: as §1

[6] = 31 g ai/ha, Preemergence, scale 0 to 100
[7] = 62 g ai/ha, preemergence, scale 0 (no effect) to 100 (complete control)
[8] = preemergence, 125 g ai/ha, scale 0 (no effect) to 100 (complete control)
[9] = Postemergence, 125 g ai/ha, 0 is no effect, 100 is complete control
[10] = Postemergence, 500 g ai/ha, 0 is no effect, 100 is complete control
[11] = Preemergence, 125 g ai/ha, 0 no effect, 100 complete control
[12] = Preemergence, 500 g ai/ha, 0 to 100 scale where 0 is no effect and 100 is complete control

Cc1cc[n+]([O-])c([S+]([O-])Cc2c(C(F)(F)F)nn(C)c2OC(F)F)c1 (stereo not shown) [Compound 1]
Pigweed plant response rating (pigweed; [6]): 80 | Pigweed plant response rating (pigweed; [7]): 100 | Plant response rating (0 to 100), Pigweed (pigweed; Postemergence, 31 g ai/ha): 0 | Plant response rating (0 to 100), Pigweed (pigweed; Postemergence, 62 g ai/ha): 0 | Plant response rating, Pigweed (pigweed; Postemergence, 125 g ai/ha): 0 | Plant response rating, Pigweed (pigweed; Postemergence, 250 g ai/ha): 10 | Plant response rating (0 to 100), Pigweed (pigweed; Preemergence, 250 g ai/ha): 100 | Pigweed plant response rating (pigweed; [8]): 100 | Plant response rating, Barnyardgrass (barnyardgrass; 31 g ai/ha, scale 0 to 100 (0 no effect, 100 complete control)): 0 | Plant response rating, Barnyardgrass (barnyardgrass; 62 g ai/ha, scale 0 to 100, 0 no effect, 100 complete control, 13 to 15 days): 0 | Plant response rating, Barnyardgrass (barnyardgrass; 125 g ai/ha, scale 0 to 100, 0 no effect, 100 complete control, 13 to 15 days): 80 | Plant response rating, Barnyardgrass (barnyardgrass; 250 g ai/ha, scale 0 to 100 (0 no effect, 100 complete control)): 80 | Soybean plant response rating (soybean; 62 g ai/ha): 100 | Plant response rating (0 to 100), Soybean (soybean; Postemergence, 31 g ai/ha): 60 | Plant response rating (0 to 100), Soybean (soybean; Postemergence, 62 g ai/ha): 85 | Plant response rating, Soybean (soybean; Postemergence, 125 g ai/ha): 85 | Plant response rating, Soybean (soybean; Postemergence, 250 g ai/ha): 90 | Plant response rating (0 to 100), Soybean (soybean; Preemergence, 250 g ai/ha): 100 | Soybean plant response rating (soybean; 125 g ai/ha): 100 | Nutsedge, Yellow plant response rating (yellow nutsedge; [6]): 0 | Nutsedge, Yellow plant response rating (yellow nutsedge; [7]): 95 | Plant response rating (0 to 100), Nutsedge, Yellow (yellow nutsedge; Postemergence, 31 g ai/ha): 0 | Plant response rating, Nutsedge, Yellow (yellow nutsedge; Postemergence, 62 g ai/ha): 0 | Plant response rating, Nutsedge, Yellow (yellow nutsedge; Postemergence, 125 g ai/ha): 0 | Plant response rating, Nutsedge, Yellow (yellow nutsedge; Postemergence, 250 g ai/ha): 0 | Plant response rating (0 to 100), Nutsedge, Yellow (yellow nutsedge; Preemergence, 250 g ai/ha): 100 | Nutsedge, Yellow plant response rating (yellow nutsedge; [8]): 100 | Goosegrass plant response rating (Goosegrass; [6]): 70 | Goosegrass plant response rating (Goosegrass; [7]): 100 | Plant response rating (0 to 100), Goosegrass (Goosegrass; Postemergence, 31 g ai/ha): 0 | Plant response rating, Goosegrass (Goosegrass; Postemergence, 62 g ai/ha): 0 | Plant response rating, Goosegrass (Goosegrass; Postemergence, 125 g ai/ha): 30 | Plant response rating, Goosegrass (Goosegrass; Postemergence, 250 g ai/ha): 80 | Plant response rating (0 to 100), Goosegrass (Goosegrass; Preemergence, 250 g ai/ha): 100 | Goosegrass plant response rating (Goosegrass; [8]): 100 | Bermudagrass plant response rating (bermudagrass; [6]): 85 | Bermudagrass plant response rating (bermudagrass; [7]): 90 | Plant response rating, Bermudagrass (bermudagrass; 125 g ai/ha): 70 | Plant response rating, Bermudagrass (bermudagrass; 250 g ai/ha): 80 | Plant response rating (0 to 100), Bermudagrass (bermudagrass; Preemergence, 250 g ai/ha): 100 | Bermudagrass plant response rating (bermudagrass; [8]): 100 | Foxtail, Giant plant response rating (giant foxtail; [9]): 80 | Foxtail, Giant plant response rating (giant foxtail; [10]): 90 | Foxtail, Giant plant response rating (giant foxtail; [11]): 100 | Plant response rating, Foxtail, Giant (giant foxtail; [12]): 100 | Morningglory plant response rating (morningglory [1]; [9]): 70 | Morningglory plant response rating (morningglory [1]; [10]): 90 | Morningglory plant response rating (morningglory [1]; [11]): 70 | Plant response rating, Morningglory (morningglory [1]; [12]): 80 | Crabgrass, Large plant response rating (crabgrass; [9]): 60 | Crabgrass, Large plant response rating (crabgrass; [10]): 90 | Crabgrass, Large plant response rating (crabgrass; [11]): 100 | Plant response rating, Crabgrass, Large (crabgrass; [12]): 100 | Wheat plant response rating (wheat [2]; [9]): 70 | Wheat plant response rating (wheat [2]; [10]): 70 | Wheat plant response rating (wheat [2]; [11]): 60 | Plant response rating, Wheat (wheat [2]; [12]): 90 | Ryegrass, Italian plant response rating (Italian ryegrass; [6]): 60 | Ryegrass, Italian plant response rating (Italian ryegrass; [7]): 100 | Plant response rating (0 to 100), Ryegrass, Italian (Italian ryegrass; Postemergence, 31 g ai/ha): 0 | Plant response rating (0 to 100), Ryegrass, Italian (Italian ryegrass; Postemergence, 62 g ai/ha): 0 | Plant response rating, Ryegrass, Italian (Italian ryegrass; Postemergence, 125 g ai/ha): 0 | Plant response rating, Ryegrass, Italian (Italian ryegrass; Postemergence, 250 g ai/ha): 30 | Plant response rating (0 to 100), Ryegrass, Italian (Italian ryegrass; Preemergence, 250 g ai/ha): 100 | Ryegrass, Italian plant response rating (Italian ryegrass; [8]): 100 | Morningglory plant response rating (morningglory [3]; [6]): 85 | Morningglory plant response rating (morningglory [3]; [7]): 100 | Plant response rating (0 to 100), Morningglory (morningglory [3]; Postemergence, 31 g ai/ha): 40 | Plant response rating, Morningglory (morningglory [3]; Postemergence, 62 g ai/ha): 40 | Plant response rating, Morningglory (morningglory [3]; Postemergence, 125 g ai/ha): 45 | Plant response rating, Morningglory (morningglory [3]; Postemergence, 250 g ai/ha): 75 | Plant response rating (0 to 100), Morningglory (morningglory [3]; Preemergence, 250 g ai/ha): 100 | Morningglory plant response rating (morningglory [3]; [8]): 100 | Galium plant response rating (catchweed bedstraw; [6]): 70 | Galium plant response rating (catchweed bedstraw; [7]): 85 | Plant response rating (0 to 100), Galium (catchweed bedstraw; Preemergence, 250 g ai/ha): 98 | Galium plant response rating (catchweed bedstraw; [8]): 98 | Sunflower plant response rating ([4]; 62 g ai/ha): 5 | Plant response rating (0 to 100), Sunflower ([4]; Preemergence, 250 g ai/ha): 75 | Sunflower plant response rating ([4]; 125 g ai/ha): 25 | Corn plant response rating (corn; [9]): 50 | Corn plant response rating (corn; [10]): 80 | Corn plant response rating (corn; [11]): 0 | Plant response rating, Corn (corn; [12]): 70 | Wheat plant response rating (wheat [5]; 62 g ai/ha): 30 | Plant response rating (0 to 100), Wheat (wheat [5]; Postemergence, 31 g ai/ha): 0 | Plant response rating (0 to 100), Wheat (wheat [5]; Postemergence, 62 g ai/ha): 0 | Plant response rating, Wheat (wheat [5]; Postemergence, 125 g ai/ha): 0 | Plant response rating, Wheat (wheat [5]; Postemergence, 250 g ai/ha): 0 | Plant response rating (0 to 100), Wheat (wheat [5]; Preemergence, 250 g ai/ha): 95 | Wheat plant response rating (wheat [5]; 125 g ai/ha): 60
